Laboratory results published in patent US7351719B2, “Amide compounds having MCH-antagonistic activity and medicaments comprising these compounds” (Boehringer Ingelheim Pharma GmbH & Co. KG, priority 2002, dated 2008).
pIC50: −log10 of the molar value.

Biological target: T1, hMCH-1R (Homo sapiens, UniProt Q99705)
T1 construct: expressed in transfected cells; host or cells: CHO/Galpha16 cells (stably transfected); membranes used
Test: MCH-1 receptor binding test (125I-MCH binding to hMCH-1R transfected cell membranes)
Details: hMCH-1R transfected CHO/Galpha16 cell membranes
Description: Membranes from CHO/Galpha 16 cells stably transfected with human hMCH-1R are resuspended using a syringe (needle 0.6×25 mm) and diluted in test buffer (50 mM HEPES, 10 mM MgCl2, 2 mM EGTA, pH 7.00; 0.1% bovine serum albumin (protease-free), 0.021% bacitracin,1 μg/mL aprotinin, 1 μg/mL leupeptin and 1 μM phosphoramidone) to a concentration of 5 to 15 μg/mL. […] After the incubation the reaction is filtered using a cell harvester through 0.5% PEI treated glass fibre filters (GF/B, Unifilter Packard). The membrane-bound radioactivity retained on the filter is then determined after the addition of scintillator substance (Packard Microscint 20) in a measuring device (TopCount of Packard).
The analysis of the concentration binding curve is carried out on the assumption of one receptor binding site.

T1 sequence (Q99705 whole entry): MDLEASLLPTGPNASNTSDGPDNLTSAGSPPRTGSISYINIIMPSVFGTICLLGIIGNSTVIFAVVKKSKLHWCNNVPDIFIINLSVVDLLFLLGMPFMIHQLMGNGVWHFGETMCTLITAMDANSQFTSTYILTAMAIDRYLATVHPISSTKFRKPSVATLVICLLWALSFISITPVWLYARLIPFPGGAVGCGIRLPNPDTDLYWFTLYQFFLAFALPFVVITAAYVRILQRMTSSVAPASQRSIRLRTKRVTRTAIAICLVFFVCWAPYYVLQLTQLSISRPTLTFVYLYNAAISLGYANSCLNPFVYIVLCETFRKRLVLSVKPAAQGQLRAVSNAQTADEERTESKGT

Row | pIC50 | SMILES
1 | 7.39 | CCN(CC)CCn1ccc2cc(NC(=O)COc3ccc(C(F)(F)F)cc3Cl)ccc21 [Example 12]
2 | 7.77 | CCN(CC)CCOc1ccc(NC(=O)COc2ccc(C(C)(C)C)cc2Cl)cc1Cl [Example 34]
